Test results taken from patent publication US12667574B2, “Paraxanthine-based bioactive composition and method of use thereof” (PX ING, LLC, priority 2021, dated 2026).

Key:
[1] = system: male Swiss Albino Wistar rats; test: Walter Morris Maze test (Example 3); assay type: in vivo; conditions: for escape latency: oral 14 days
Procedure: Distilled water was provided ad libitum. […] Ltd (Bangalore, India). […] The last dose on day 14 was given 1 hour prior to testing. The Walter Morris Maze test consisted of a circular pool in a room with geometric shapes on the wall serving as spatial cues. The pool, which is 70 cm in diameter and painted with black color, filled with 13 cm depth of 25±1° C. water. A platform (6 cm diameter) was placed into one quadrant of the pool and submerged 1 cm below the water surface. For the training, all rats were trained to locate the submerged platform in constant location. The training day consisted of four trials. […] The rat was allowed to remain on the platform for 15 seconds before being dried off and later was transferred to a holding cage.

[2] = system: brain derived neuro factor, BDNF; test: BDNF level, neuroplasticity (Example 3); assay type: in vivo, rats; conditions: for BDNF: oral 14 days
Procedure: (§1) Distilled water was provided ad libitum. […] Ltd (Bangalore, India).
(§2) 0.5% Carboxy Methyl Cellulose sodium was used as vehicle and the test item formulations were prepared daily. […] The last dose on day 14 was given 1 hour prior to testing.

acetylcholine (Ach) [3] = test: Acetylcholine concentration (Example 3); assay type: in vivo, rats; conditions: for acetylcholine (Ach) concentration: oral 14 days
Procedure: as §1, §2

dopamine (dopa) [4] = test: Dopamine concentration (Example 3); assay type: in vivo, rats; conditions: for dopamine (dopa) concentration: oral 14 days
Procedure: as §1, §2

glutathione (GSH) [5] = test: Glutathione level (Example 3); assay type: in vivo, rats; conditions: for glutathione (GSH) level: oral 14 days
Procedure: as §1, §2

male Swiss Albino mice [6] = test: Treadmill endurance test (first Example 4, L-Theanine); assay type: in vivo
Procedure: as §1
(§3) The following HED were used in this study: 50 mg paraxanthine, (ENFINITY™ Ingenious Ingredients, L.P Lewisville, TX, USA; mouse dose: 10.275 mg/kg bw/day); 25 mg L-Theanine (mouse dose: 5.137 mg/kg bw), and 50 mg paraxanthine plus 25 mg L-Theanine. 0.5% Carboxy Methyl Cellulose sodium was used as vehicle and the test item formulations were prepared daily.
During the treatment period, exercise training was completed using a motorized treadmill (Exer 3/6, Columbus Instruments international, OH, USA) at a moderate intensity of 20 cm/sec as maximal running speed, an incline of ten degrees and a shock intensity of 0.2 mA, for ten minutes. The speed of the treadmill was manually adjusted by increasing the belt speed by 5 cm/sec every two minutes throughout the total duration of ten minutes. All animals were adapted to this procedure daily 60 minutes after dosing for five days in a week during the treatment period. 1.3. Treadmill Endurance Test
Muscle endurance was accomplished on a motorized treadmill at a low to moderate intensity of 5-50 cm/sec as maximal running speed, an incline of ten degrees and a shock intensity of 0.2 mA, with the belt speed being increased by 5 cm/sec every two minutes until it reaches 50 cm/sec. Animals were subjected to the treadmill test until exhaustion.

[7] = system: male Swiss Albino Wistar rats; test: Walter Morris Maze test (second Example 4, L-Theanine); assay type: in vivo; conditions: for escape latency: oral 14 days
Procedure: as §1
as §3, with “(ENFINITY™,” for “(ENFINITY™”, “rat” for “mouse”, “5.141” for “10.275”, “(rat” for “(mouse”, “2.570” for “5.137”, “daily. […] The last dose on day 14 was given 1 hour prior to testing.” for “daily.”
The Walter Morris Maze test consisted of a circular pool in a room with geometric shapes on the wall serving as spatial cues. The pool, which is 70 cm in diameter and painted with black color, filled with 13 cm depth of 25±1° C. water. A platform (6 cm diameter) was placed into one quadrant of the pool and submerged 1 cm below the water surface. For the training, all rats were trained to locate the submerged platform in a constant location. The training day consisted of four trials. During training, a rat started at one of four starting points and allowed to swim until it located the platform or until 60 seconds had elapsed. The rat was allowed to remain on the platform for 15 seconds before being dried off and later was transferred to a holding cage. […] The animals were continuously trained 4 times at 4 starting points continued daily for 4 days, the main trial was conducted on the 15th & 16th day and the latency of escaping onto the platform was recorded.

[8] = system: brain derived neuro factor, BDNF; test: BDNF level, neuroplasticity (second Example 4); assay type: in vivo, rats; conditions: for BDNF: oral 14 days
Procedure: as §1
as §3, with “(ENFINITY™,” for “(ENFINITY™”, “rat” for “mouse”, “5.141” for “10.275”, “(rat” for “(mouse”, “2.570” for “5.137”, “daily. […] The last dose on day 14 was given 1 hour prior to testing.” for “daily.”

acetylcholine (Ach) [9] = test: Acetylcholine concentration (second Example 4); assay type: in vivo, rats; conditions: for acetylcholine (Ach) concentration: oral 14 days
Procedure: as §1
as §3, with “(ENFINITY™,” for “(ENFINITY™”, “rat” for “mouse”, “5.141” for “10.275”, “(rat” for “(mouse”, “2.570” for “5.137”, “daily. […] The last dose on day 14 was given 1 hour prior to testing.” for “daily.”

dopamine (dopa) [10] = test: Dopamine concentration (second Example 4); assay type: in vivo, rats; conditions: for dopamine (dopa) concentration: oral 14 days
Procedure: as §1
as §3, with “(ENFINITY™,” for “(ENFINITY™”, “rat” for “mouse”, “5.141” for “10.275”, “(rat” for “(mouse”, “2.570” for “5.137”, “daily. […] The last dose on day 14 was given 1 hour prior to testing.” for “daily.”

glutathione (GSH) [11] = test: Glutathione level (second Example 4); assay type: in vivo, rats; conditions: for glutathione (GSH) level: oral 14 days
Procedure: as §1
as §3, with “(ENFINITY™,” for “(ENFINITY™”, “rat” for “mouse”, “5.141” for “10.275”, “(rat” for “(mouse”, “2.570” for “5.137”, “daily. […] The last dose on day 14 was given 1 hour prior to testing.” for “daily.”

male Swiss Albino mice [12] = test: Treadmill endurance test (Example 2)
Procedure: Thirty-six 8-week-old male Swiss Albino mice were housed in an animal room at a constant temperature (22±3° C.) and humidity (30%-70%) under a 12:12 h light-dark cycle with standard laboratory diet (Purina 5L79, Rat and Mouse 18% protein; PMI Nutrition International, Brentwood, MO, USA). Distilled water was provided ad libitum. All animal experiments were reviewed and approved by the Institutional Animal Ethical Committee (IAEC) of Radiant Research Services Pvt. Ltd (Bangalore, India). All research was conducted in accordance with the guidelines of the committee for the purpose of control and supervision of experiments on animals.
The dose administered to the mice was calculated using US Food and Drug Administration for human equivalence doses (HED), assuming a human weight of 60 kg. […] 0.5% Carboxy Methyl Cellulose sodium was used as vehicle and the test item formulations were prepared daily. Dosing was conducted via oral gavage using disposable polypropylene syringes with sterilized stainless steel gavage tubes. The food intake and water consumption were monitored daily, and BW was recorded weekly. The last dose on day 28 was given 1 hour prior to testing.
On 28th day of each respective treatment, all animals were subjected to a muscle endurance test. Muscle endurance was accomplished on a motorized treadmill at a low to moderate intensity of 5-50 cm/sec as maximal running speed, an incline of ten degrees and a shock intensity of 0.2 mA, with the belt speed being increased by 5 cm/sec every two minutes until it reaches 50 cm/sec. Animals were subjected to the treadmill test until exhaustion. Distance traveled (cm) was measured as a marker of exercise performance, energy, and endurance.

## Cn1c(=O)[nH]c2ncn(C)c2c1=O [paraxanthine, 1,7-Dimethyl-3H-purine-2,6-dione]
[1]; old rats (16-month-old)
  escape latency: 39.00 ± 1.90 s
[1]; old rats
  decrease of escape latency compared to alpha-GPC: 2.1%
  decrease of escape latency compared to control: 33.7%
  decrease of escape latency compared to theobromine: 7.9%
  decrease of escape latency compared to theophylline: 11.0%
[1]; young rats (8-week-old)
  escape latency: 32.50 ± 1.38 s
[1]; young rats
  decrease of escape latency compared to alpha-GPC: 6.7%
  decrease of escape latency compared to control: 40%
  decrease of escape latency compared to theobromine: 13.7%
  decrease of escape latency compared to theophylline: 14.5%
[2]; old rats
  BDNF: 842.68 ± 6.26 pg/mL
  increase in BDNF compared to alpha-GPC: 1.5%
  increase in BDNF compared to placebo: 18.1%
  increase in BDNF compared to theobromine: 3.1%
  increase in BDNF compared to theophylline: 3.8%
[2]; young rats
  BDNF: 917.05 ± 5.21 pg/mL
  increase in BDNF compared to alpha-GPC: 4.0%
  increase in BDNF compared to placebo: 22.7%
  increase in BDNF compared to theobromine: 5.4%
  increase in BDNF compared to theophylline: 4.9%
Acetylcholine (Ach) [3]; old rats
  acetylcholine (Ach) concentration: 59.78±2.61 U/mL
  increase in Ach compared to alpha-GPC: 5.1%
  increase in Ach compared to placebo: 23.2%
  increase in Ach compared to theobromine: 5.5%
  increase in Ach compared to theophylline: 8.0%
Acetylcholine (Ach) [3]; young rats
  acetylcholine (Ach) concentration: 66.83±2.38 U/mL
  increase in Ach compared to alpha-GPC: 1.4%
  increase in Ach compared to placebo: 23.9%
  increase in Ach compared to theobromine: 4.0%
  increase in Ach compared to theophylline: 4.6%
Dopamine (dopa) [4]; old rats
  dopamine (dopa) concentration: 516.85 ± 4.43 ng/L
  increase in dopa compared to alpha-GPC: 2.1%
  increase in dopa compared to placebo: 32.7%
  increase in dopa compared to theobromine: 2.8%
  increase in dopa compared to theophylline: 4.2%
Dopamine (dopa) [4]; young rats
  dopamine (dopa) concentration: 580.22 ± 5.33 ng/L
  increase in dopa compared to alpha-GPC: 3.0%
  increase in dopa compared to placebo: 23.7%
  increase in dopa compared to theobromine: 5.0%
  increase in dopa compared to theophylline: 6.7%
Glutathione (GSH) [5]; old rats
  glutathione (GSH) level: 25.57 ± 0.80 µg/mL
  increase in GSH compared to alpha-GPC: 3.4%
  increase in GSH compared to placebo: 62.1%
  increase in GSH compared to theobromine: 4.2%
  increase in GSH compared to theophylline: 5.5%
Glutathione (GSH) [5]; young rats
  glutathione (GSH) level: 32.57 ± 0.84 µg/mL
  increase in GSH compared to alpha-GPC: 2.6%
  increase in GSH compared to placebo: 64.1%
  increase in GSH compared to theobromine: 3.9%
  increase in GSH compared to theophylline: 9.4%
Male Swiss Albino mice [6]; compared to L-Theanine alone
  increase of distance travelled compared to L-Theanine: 4.9%
Male Swiss Albino mice [6]; compared to control (placebo)
  increase of distance travelled compared to control: 81%
Male Swiss Albino mice [6]; oral 28 days
  exercise performance, energy, and endurance (in words): significant improvements of exercise performance, energy, and endurance
Male Swiss Albino mice [6]; oral once daily 28 days, HED 50 mg paraxanthine, 25 mg L-Theanine
  distance travelled during treadmill exercise: 309.50±6.77 m
[7]; old rats (16-month-old)
  escape latency: 39.00 ± 1.90 s
[7]; old rats
  decrease of escape latency compared to L-Theanine: 12.7%
  decrease of escape latency compared to control: 33.7%
[7]; young rats (8-week-old)
  escape latency: 32.50 ± 1.38 s
[7]; young rats
  decrease of escape latency compared to L-Theanine: 15.2%
  decrease of escape latency compared to control: 40%
[8]; old rats
  BDNF: 842.7 ± 6.26 pg/mL
  increase in BDNF compared to L-Theanine: 6.8%
  increase in BDNF compared to placebo: 18.1%
[8]; young rats
  BDNF: 917 ± 5.21 pg/mL
  increase in BDNF compared to L-Theanine: 5.9%
  increase in BDNF compared to placebo: 22.7%
Acetylcholine (Ach) [9]; old rats
  acetylcholine (Ach) concentration: 59.78±2.61 U/mL
  increase in Ach compared to L-Theanine: 7.0%
  increase in Ach compared to placebo: 23.3%
Acetylcholine (Ach) [9]; young rats
  acetylcholine (Ach) concentration: 66.83±2.38 U/mL
  increase in Ach compared to L-Theanine: 6.4%
  increase in Ach compared to placebo: 23.9%
Dopamine (dopa) [10]; old rats
  dopamine (dopa) concentration: 516.85 ± 4.43 ng/L
  increase in dopa compared to L-Theanine: 9.3%
  increase in dopa compared to placebo: 32.7%
Dopamine (dopa) [10]; young rats
  dopamine (dopa) concentration: 580.22 ± 5.33 ng/L
  increase in dopa compared to L-Theanine: 9.8%
  increase in dopa compared to placebo: 23.7%
Glutathione (GSH) [11]; old rats
  glutathione (GSH) level: 25.57 ± 0.80 µg/mL
  increase in GSH compared to L-Theanine: 7.1%
  increase in GSH compared to placebo: 62.1%
Glutathione (GSH) [11]; young rats
  glutathione (GSH) level: 32.57 ± 0.84 µg/mL
  increase in GSH compared to L-Theanine: 2.6%
  increase in GSH compared to placebo: 64.1%
Male Swiss Albino mice [12]; compared to alpha-GPC alone
  increase of distance travelled compared to alpha-GPC: 4.4%
Male Swiss Albino mice [12]; compared to control (placebo)
  increase of distance travelled compared to control: 81%
Male Swiss Albino mice [12]; compared to theobromine
  increase of distance travelled compared to theobromine: 6.3%
Male Swiss Albino mice [12]; compared to theophylline
  increase of distance travelled compared to theophylline: 9.9%
Male Swiss Albino mice [12]; oral 28 days
  exercise performance, energy, and endurance (in words): significant improvements of exercise performance, energy, and endurance

## Cn1cnc2c1c(=O)[nH]c(=O)n2C [theobromine, reference compound]
[1]; old rats (16-month-old)
  escape latency: 42.33 ± 1.63 s
[1]; young rats (8-week-old)
  escape latency: 37.67 ± 2.07 s
Acetylcholine (Ach) [3]; old rats
  acetylcholine (Ach) concentration: 56.67±1.32 U/mL
Acetylcholine (Ach) [3]; young rats
  acetylcholine (Ach) concentration: 64.28±0.88 U/mL
Dopamine (dopa) [4]; old rats
  dopamine (dopa) concentration: 503.03 ± 9.29 ng/L
Dopamine (dopa) [4]; young rats
  dopamine (dopa) concentration: 552.73 ± 10.42 ng/L
Glutathione (GSH) [5]; old rats
  glutathione (GSH) level: 24.53 ± 0.54 µg/mL
Glutathione (GSH) [5]; young rats
  glutathione (GSH) level: 31.28 ± 0.78 µg/mL

## Cn1c(=O)c2[nH]cnc2n(C)c1=O [theophylline, reference compound]
[1]; old rats (16-month-old)
  escape latency: 43.83 ± 1.47 s
[1]; young rats (8-week-old)
  escape latency: 38.00 ± 1.90 s
Acetylcholine (Ach) [3]; old rats
  acetylcholine (Ach) concentration: 55.33±1.05 U/mL
Acetylcholine (Ach) [3]; young rats
  acetylcholine (Ach) concentration: 63.89±1.64 U/mL
Dopamine (dopa) [4]; old rats
  dopamine (dopa) concentration: 495.82 ± 10.86 ng/L
Dopamine (dopa) [4]; young rats
  dopamine (dopa) concentration: 543.78 ± 6.11 ng/L
Glutathione (GSH) [5]; old rats
  glutathione (GSH) level: 24.23 ± 0.63 µg/mL
Glutathione (GSH) [5]; young rats
  glutathione (GSH) level: 29.78 ± 1.07 µg/mL
